Assay results reported in patent US9951010B2, “Compounds as CRTH2 antagonist and uses thereof” (SUNSHINE LAKE PHARMA CO., LTD., priority 2014, dated 2018).
Counter-ions that a name gives are not always drawn.

Molecular target: T1, CRTH2 receptor (Homo sapiens, UniProt Q9Y5Y4)
T1 construct: expressed in transfected cells; host or cells: CHO-K1/G cells
T1 sequence (Q9Y5Y4 1-395): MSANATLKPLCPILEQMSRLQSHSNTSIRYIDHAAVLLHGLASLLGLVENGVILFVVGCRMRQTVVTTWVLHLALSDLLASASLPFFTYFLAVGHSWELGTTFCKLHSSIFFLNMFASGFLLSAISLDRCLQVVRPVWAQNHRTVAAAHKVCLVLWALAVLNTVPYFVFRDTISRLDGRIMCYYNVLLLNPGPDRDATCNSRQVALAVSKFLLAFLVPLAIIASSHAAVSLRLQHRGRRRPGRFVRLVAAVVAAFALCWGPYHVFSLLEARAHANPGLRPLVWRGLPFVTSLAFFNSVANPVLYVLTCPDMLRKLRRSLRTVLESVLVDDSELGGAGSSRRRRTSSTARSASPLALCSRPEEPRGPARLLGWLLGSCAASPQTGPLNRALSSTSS
Experiment: FLIPR detection of inhibitory activity against CRTH2 (CHO-K1/G cells, PGD2 as agonist)
Type: cell-based
Conditions: CHO-K1/G cells with stable expression of CRTH2 receptor, PGD2 at EC80, FLIPR
Description: The test compound was weighed accurately and then dissolved in a suitable amount of DMSO to prepare a stock solution at a concentration of 10 mM; after clear and transparent, the stock solution was subpackaged and cryostoraged at −20° C. for use. Before testing, the test compound was diluted with balanced salt solution (HBSS buffer, containing 4-(2-hydroxyethyl)piperazine-1-ethanesulfonicacid) at a concentration of 20 mM) to 5 times testing concentration.
CHO-K1/G cells with stable expression of CRTH2 receptor were prepared to 5 times testing concentration and seeded into 384-microwell plate, and incubated in an incubator at 37° C./5% CO2. After incubating for 18 hours, to the cells in 384-microwell plate was added 20 μL of dye followed by the addition of 10 μL of prepared test compound solution. And then the cell plate was incubated in the incubator at 37° C./5% CO2 for 1 hour, at last which was balanced at rt for 15 min. After adding 12.5 μL of positive agonist (PGD2) at a concentration of 5 times EC80 to each well of the cell plate, the RFU (fluorescence intensity) value of the test compound was detected.
The data were recorded from ScreenWorks (version 3.1), and collected and analyzed by using Excel and GraphPad Prism 6 software to calculate the values of IC50.

SMILES	IC50 [nM]
Cc1c(C2CCC(NC(=O)c3cccc4ccccc34)CC2)c2cc(F)ccc2n1CC(=O)O (stereo not drawn) [Example 3, 2-(3-(4-(1-naphthamido)cyclohexyl)-5-fluoro-2-methyl-1H-indol-1-yl)acetic acid]	265
Cc1c(C2CCC(NS(=O)(=O)c3ccc(F)cc3F)CC2)c2cc(F)ccc2n1CC(=O)O (single isomer, unassigned) [Example 29b, 2-(3-(4-(2,4-difluorophenylsulfonamido)cyclohexyl)-5-fluoro-2-methyl-1H-indol-1-yl)acetic acid]	79.5
Cc1c(C2CCN(S(=O)(=O)c3ccccc3F)CC2)c2cc(F)ccc2n1CC(=O)O [Example 39, 2-(5-fluoro-3-(1-((2-fluorophenyl)sulfonyl)piperidin-4-yl)-2-methyl-1H-indol-1-yl)acetic acid]	106
Cc1c(C2CCN(S(=O)(=O)c3ccc(Cl)cc3F)CC2)c2cc(F)ccc2n1CC(=O)O [Example 34, 2-(5-fluoro-3-(1-((4-chloro-2-fluorophenyl)sulfonyl)piperidin-4-yl)-2-methyl-1H-indol-1-yl) acetic acid]	211
Cc1c(C2=CCN(Cc3ccc4ccccc4n3)CC2)c2cc(F)ccc2n1CC(=O)O [Example 8, 2-(5-fluoro-2-methyl-3-(1-(quinolin-2-yl)methyl-1,2,3,6-tetrahydropyridin-4-yl)-1H-indol-1-yl)acetic acid dihydrochloride]	657
Cc1c(C2CCN(S(=O)(=O)c3ccc(Cl)cc3Cl)CC2)c2cc(F)ccc2n1CC(=O)O [Example 36, 2-(5-fluoro-3-(1-((2,4-dichlorophenyl)sulfonyl)piperidin-4-yl)-2-methyl-1H-indol-1-yl)acetic acid]	422
Cc1c(C2CCN(S(=O)(=O)c3ccc(Cl)cc3)CC2)c2cc(F)ccc2n1CC(=O)O [Example 47, 2-(3-(1-((4-chlorophenyl)sulfonyl)piperidin-4-yl)-5-fluoro-2-methyl-1H-indol-1-yl)acetic acid]	139
Cc1c(C2=CCCN(C(=O)c3ccc4ccccc4n3)C2)c2cc(F)ccc2n1CC(=O)O [Example 7, 2-(5-fluoro-2-methyl-3-(1-(quinoline-2-carbonyl)-1,2,5,6-tetrahydropyridin-3-yl)-1H-indol-1-yl)acetic acid hydrochloride]	776
Cc1c(C2CCC(NC(=O)c3ccc4cccnc4n3)CC2)c2cc(F)ccc2n1CC(=O)O (single isomer, unassigned) [Example 20, 2-(3-(4-(1,8-naphthyridine-2-carboxamido)cyclohexyl)-5-fluoro-2-methyl-1H-indol-1-yl)acetic acid hydrochloride]	39.8
Cc1c(C2=CCN(C(=O)NCc3ccc(F)cc3F)CC2)c2cc(F)ccc2n1CC(=O)O [Example 9a, 2-(3-(1-((2,4-difluorobenzyl)carbamoyl)-1,2,3,6-tetrahydropyridin-4-yl)-5-fluoro-2-methyl-1H-indol-1-yl)acetic acid]	192
Cc1c(C2CCN(C(=O)c3ccc4ccccc4n3)CC2)c2cc(F)ccc2n1CC(=O)O [Example 4, 2-(5-fluoro-2-methyl-3-(1-(quinoline-2-carbonyl)piperidin-4-yl)-1H-indol-1-yl)acetic acid hydrochloride]	306
Cc1c(C2CCC(NC(=O)NCc3ccc(F)cc3F)CC2)c2cc(F)ccc2n1CC(=O)O (stereo not drawn) [Example 16, 2-(3-(4-(3-(2,4-difluorobenzyl)ureido)cyclohexyl)-5-fluoro-2-methyl-1H-indol-1-yl)acetic acid]	969
Cc1c(C2CCN(S(=O)(=O)c3ccc(F)cc3Cl)CC2)c2cc(F)ccc2n1CC(=O)O [Example 35, 2-(5-fluoro-3-(1-((2-chloro-4-fluorophenyl)sulfonyl)piperidin-4-yl)-2-methyl-1H-indol-1-yl) acetic acid]	333
Cc1c(C2CCN(S(=O)(=O)c3ccccc3)CC2)c2cc(F)ccc2n1CC(=O)O [Example 46, 2-(5-fluoro-2-methyl-3-(1-(phenylsulfonyl)piperidin-4-yl)-1H-indol-1-yl)acetic acid]	317
Cc1c(C2CCC(N(C)C(=O)c3ccc4ccccc4n3)CC2)c2cc(F)ccc2n1CC(=O)O (single isomer, unassigned) [Example 17a, 2-(5-fluoro-2-methyl-3-(4-(N-methylquinoline-2-carboxamido)cyclohexyl)-1H-indol-1-yl)acetic acid hydrochloride]	600
Cc1c(C2=CCCN(C(=O)c3cccc4ccccc34)C2)c2cc(F)ccc2n1CC(=O)O [Example 23, 2-(3-(1-(1-naphthoyl)-1,2,5,6-tetrahydropyridin-3-yl)-5-fluoro-2-methyl-1H-indol-1-yl)acetic acid]	866
Cc1c(C2CCC(NC(=O)c3cccc4ncccc34)CC2)c2cc(F)ccc2n1CC(=O)O (single isomer, unassigned) [Example 26b, 2-(5-fluoro-2-methyl-3-(4-(quinoline-5-carboxamido)cyclohexyl)-1H-indol-1-yl)acetic acid hydrochloride]	83.9
Cc1c(C2CCN(S(=O)(=O)c3cccc4ccccc34)CC2)c2cc(F)ccc2n1CC(=O)O [Example 42, 2-(5-fluoro-2-methyl-3-(1-(naphthalen-1-ylsulfonyl)piperidin-4-yl)-1H-indol-1-yl)acetic acid]	283
Cc1c(C2CCN(C(=O)c3cccc4ccccc34)CC2)c2cc(F)ccc2n1CC(=O)O [Example 2, 2-(3-(1-(1-naphthoyl)piperidin-4-yl)-5-fluoro-2-methyl-1H-indol-1-yl)acetic acid]	674
O=C(O)Cn1cc(C2CCN(S(=O)(=O)c3ccc(F)cc3)CC2)c2ccccc21 [Control compound, reference compound]	6190
Cc1c(C2CC(NS(=O)(=O)c3ccc(F)cc3)C2)c2cc(F)ccc2n1CC(=O)O (stereo not drawn) [Example 32, 2-(5-fluoro-3-(3-(4-fluorophenylsulfonamido)cyclobutyl)-2-methyl-1H-indol-1-yl)acetic acid]	33.7
Cc1c(C2CCCN(S(=O)(=O)c3ccc(F)cc3)C2)c2cc(F)ccc2n1CC(=O)O (stereo not drawn) [Example 40, 2-(5-fluoro-3-(1-((4-fluorophenyl)sulfonyl)piperidin-3-yl)-2-methyl-1H-indol-1-yl)acetic acid]	17.4
Cc1c(C2CC(NC(=O)c3ccc4ccccc4n3)C2)c2cc(F)ccc2n1CC(=O)O (stereo not drawn) [Example 21, 2-(5-fluoro-2-methyl-3-(3-(quinoline-2-carboxamido)cyclobutyl)-1H-indol-1-yl)acetic acid hydrochloride]	185
Cc1c(C2CCN(S(=O)(=O)c3ccc(O)cc3)CC2)c2cc(F)ccc2n1CC(=O)O [Example 37, 2-(5-fluoro-3-(1-((4-hydroxyphenyl)sulfonyl)piperidin-4-yl)-2-methyl-1H-indol-1-yl)acetic acid]	137
Cc1c(C2CCC(N(C)S(=O)(=O)c3ccc(F)cc3)CC2)c2cc(F)ccc2n1CC(=O)O (stereo not drawn) [Example 28, 2-(5-fluoro-3-(4-(4-fluoro-N-methylphenylsulfonamido)cyclohexyl)-2-methyl-1H-indol-1-yl) acetic acid]	138
Cc1c(C2CCC(NC(=O)c3cccc4c(F)cccc34)CC2)c2cc(F)ccc2n1CC(=O)O (stereo not drawn) [Example 10, 2-(5-fluoro-3-(4-(5-fluoro-1-naphthamido)cyclohexyl)-2-methyl-1H-indol-1-yl)acetic acid]	545
Cc1c(C2CCC(N(C)C(=O)c3ccc4ccccc4n3)CC2)c2cc(F)ccc2n1CC(=O)O (single isomer, unassigned) [Example 17b, 2-(5-fluoro-2-methyl-3-(4-(N-methylquinoline-2-carboxamido)cyclohexyl)-1H-indol-1-yl)acetic acid hydrochloride]	97.2
